According to patent US9468640B2, “Piperidin-4-yl-pyridazin-3-ylamine derivatives as fast dissociating dopamine 2 receptor antagonists” (Janssen Pharmaceutica N.V., priority 2005, dated 2016):

Tests used:
[1] = target: T1, human Dopamine D2L receptor (Homo sapiens, UniProt P14416); test: In vitro binding affinity for human D2L receptor ([3H]spiperone competition); settings: membranes of human D2L receptor-transfected CHO cells, 30 min, 37° C.
T1 construct: expressed in transfected cells; host or cells: CHO cells
Experimental: Frozen membranes of human Dopamine D2L receptor-transfected CHO cells were thawed, briefly homogenised using an Ultra-Turrax T25 homogeniser and diluted in Tris-HCl assay buffer containing NaCl, CaCl2, MgCl2, KCl (50, 120, 2, 1, and 5 mM respectively, adjusted to pH 7.7 with HCl) to an appropriate protein concentration optimised for specific and non-specific binding. Radioligand [^3H]Spiperone (NEN, specific activity ˜70 Ci/mmol) was diluted in assay buffer at a concentration of 2 nmol/L. Prepared radioligand (50 μl), along with 50 μl of either the 10% DMSO control, Butaclamol (10^−6 mol/l final concentration), or compound of interest, was then incubated (30 min, 37° C.) with 400 μl of the prepared membrane solution. Membrane-bound activity was filtered through a Packard Filtermate harvester onto GF/B Unifilterplates and washed with ice-cold Tris-HCl buffer (50 mM; pH 7.7; 6×0.5 ml). Filters were allowed to dry before adding scintillation fluid and counting in a Topcount scintillation counter. Percentage specific bound and competition binding curves were calculated using S-Plus software (Insightful).

T1 sequence (P14416 whole entry): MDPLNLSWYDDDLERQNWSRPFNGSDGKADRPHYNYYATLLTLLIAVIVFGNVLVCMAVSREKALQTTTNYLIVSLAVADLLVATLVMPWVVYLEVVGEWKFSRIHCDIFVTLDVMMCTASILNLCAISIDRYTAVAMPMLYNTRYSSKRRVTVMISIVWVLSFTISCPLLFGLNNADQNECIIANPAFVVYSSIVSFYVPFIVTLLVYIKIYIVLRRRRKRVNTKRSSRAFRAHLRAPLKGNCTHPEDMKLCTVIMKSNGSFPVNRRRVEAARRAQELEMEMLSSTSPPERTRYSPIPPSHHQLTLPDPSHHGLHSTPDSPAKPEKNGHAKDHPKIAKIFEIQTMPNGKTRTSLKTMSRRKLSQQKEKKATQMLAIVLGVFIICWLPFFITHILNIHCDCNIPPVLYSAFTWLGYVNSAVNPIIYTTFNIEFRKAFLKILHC

| Compound | IC50 [1] | melting point |
| --- | --- | --- |
| Fc1ccc(CN2CCC(Nc3ccc(C(F)(F)F)nn3)CC2)cc1 [Example E2, N-[1-(4-fluorobenzyl)piperidin-4-yl]-6-(trifluoromethyl)pyridazin-3-amine] | – | 163.3 to 165.3 °C |
| CN(c1ccc(Cl)nn1)C1CCN(Cc2cccc(C(F)(F)F)c2)CC1 [Example E25, N-[1-(3-trifluoromethylbenzyl)piperidin-4-yl]-N-methyl-6-chloropyridazin-3-amine] | < 6.31 µM | – |
| Fc1ccc(CN2CCC(Nc3ccc(C(F)(F)F)nn3)CC2)c(F)c1 [Example E42, N-[1-(2,4-difluorobenzyl)piperidin-4-yl]-6-(trifluoromethyl)pyridazin-3-amine] | < 6.31 µM | – |
| CC(c1ccc(F)cc1)N1CCC(Nc2ccc(C(F)(F)F)nn2)CC1 (stereo not drawn) [Example E44, N-[1-(4-fluoro-α-methylbenzyl)piperidin-4-yl]-6-(trifluoromethyl)pyridazin-3-amine] | < 6.31 µM | – |

The next lines start with the values.

| IC50 [1] | melting point | Compound |
| --- | --- | --- |
| < 6.31 µM | – | CC(c1ccc(F)c(F)c1)N1CCC(Nc2ccc(C(F)(F)F)nn2)CC1 (racemic) [Example E45, (R,S)—N-[1-(3,4-difluoro-α-methylbenzyl)piperidin-4-yl]-6-(trifluoromethyl)pyridazin-3-amine] |
| < 6.31 µM | – | Fc1ccccc1CN1CCC(Nc2ccc(C(F)(F)F)nn2)CC1 [Example E8, N-[1-(2-fluorobenzyl)piperidin-4-yl]-6-(trifluoromethyl)pyridazin-3-amine] |
| < 6.31 µM | – | COc1ccc(CN2CCC(Nc3ccc(C(F)(F)F)nn3)CC2)cc1F [Example E41, N-[1-(3-fluoro-4-methoxybenzyl)piperidin-4-yl]-6-(trifluoromethyl)pyridazin-3-amine] |
